Reference: patent EP4772506A1, “COMPOUND FOR REGULATING ACTIVITY OF MICRORNA-124” (Jiangsu Chia Tai Fenghai Pharmaceutical Co., Ltd., priority 2023, dated 2025)

Assays:
[1] = Pharmacokinetic study in beagle dogs (plasma, LC-MS/MS); type: in vivo
Method: The pharmacokinetic characteristics of test compound 45 was investigated in beagle dogs.
The gavage group was fasted for no less than 12 hours before administration, with free access to water. After 4 h of administration, the dogs were fed uniformly. […] The upper plasma layer was transferred and stored at -20°C until sample analysis. The concentration of the test compound in dog plasma was determined using the LC-MS/MS method. Pharmacokinetic parameters were fitted using WinNonlin software, and absolute bioavailability was calculated. Table 6. Pharmacokinetic parameters of compounds in beagle dogs

[2] = Pharmacokinetic study in rats (plasma, LC-MS/MS); conditions: for F: absolute bioavailability, SD male rats, p.o. 25 mg/kg vs i.v. 1 mg/kg; for AUC(0-t) / MRT inf / half-life / Cmax / Tmax: rat, in vivo
Method: • (1) SD male rats were used as test animals.
The administration solvent was a physiological saline solution containing 10% DMSO + 10% polyoxyl castor oil (Cremophor EL). Fasting was maintained for approximately 12 hours prior to administration, and free feeding was allowed 4 hours post-administration, with no water restriction. […] After gently inverting the tube to fully mix the anticoagulant EDTA-K2 with the blood, the tube was immediately placed on wet ice. The plasma was separated by centrifugation immediately after blood collection under the following centrifugation conditions: 4°C, 3500 rpm, and 5 min. The upper plasma layer was transferred and stored at -80°C until sample analysis. […] The pharmacokinetic parameters were calculated from the sample analysis results using WinNonlin software.

| Structure (SMILES) | F ([1]; absolute bioavailability, p.o. 6 mg/kg vs i.v. 1 mg/kg) | AUC(0-t) ([1]; dog, in vivo, iv, i.v. 1mg/kg) | MRT inf ([1]; dog, in vivo, iv, i.v. 1mg/kg) | half-life ([1]; dog, in vivo, iv, i.v. 1mg/kg) | AUC(0-t) ([1]; dog, in vivo, po, p.o. 6 mg/kg) | Cmax ([1]; dog, in vivo, po, p.o. 6 mg/kg) | MRT inf ([1]; dog, in vivo, po, p.o. 6 mg/kg) | Tmax ([1]; dog, in vivo, po, p.o. 6 mg/kg) | half-life ([1]; dog, in vivo, po, p.o. 6 mg/kg) | F [2] | AUC(0-t) ([2]; iv, 1 mg/kg) | MRT inf ([2]; iv, 1 mg/kg) | half-life ([2]; iv, 1 mg/kg) | AUC(0-t) ([2]; po, 25 mg/kg) | Cmax ([2]; po, 25 mg/kg) | MRT inf ([2]; po, 25 mg/kg) | Tmax ([2]; po, 25 mg/kg) | half-life ([2]; po, 25 mg/kg) |
| --- | --- | --- | --- | --- | --- | --- | --- | --- | --- | --- | --- | --- | --- | --- | --- | --- | --- | --- |
| FC(F)(F)Oc1ccc(Nc2ncc3c(N4CCOCC4)cc(Cl)cc3n2)cc1 [Compound 45] | 10.7% | 1560 ng·h/mL | 3.56 h | 8.88 h | 990 ng·h/mL | 204 ng/mL | 5.9 h | 2 h | 7.18 h | 27.6% | 1180 ng·h/mL | 1.5 h | 2.2 h | 8400 ng·h/mL | 2550 ng/mL | 3.2 h | 2 h | 5.4 h |
| CN(C)CCN(C)c1cc(Cl)cc2nc(Nc3ccc(OC(F)(F)F)cc3)ncc12 [Compound 44] | – | – | – | – | – | – | – | – | – | 34.3% | 650 ng·h/mL | 8.9 h | 15.1 h | 5570 ng·h/mL | 389 ng/mL | 8.2 h | 6 h | 8.7 h |
